Where two headings read alike, the source gives them in different places.
Assays:
[1] = target: T1, LTD4 receptors (Cavia porcellus, UniProt Q2NNR5); test: Antagonism of LTD4 (guinea pig ileum and trachea, pA2); conditions: *Estimated; negative log of KB; antagonist 30 minute incubation
T1 construct: A section of terminal ileum was removed, the lumen cleaned, and the tissue divided into 2.5 cm segments; from tissue; host or cells: ileum and trachea of guinea pig (ileum: male Hartley)
T1 sequence (Q2NNR5 1-340): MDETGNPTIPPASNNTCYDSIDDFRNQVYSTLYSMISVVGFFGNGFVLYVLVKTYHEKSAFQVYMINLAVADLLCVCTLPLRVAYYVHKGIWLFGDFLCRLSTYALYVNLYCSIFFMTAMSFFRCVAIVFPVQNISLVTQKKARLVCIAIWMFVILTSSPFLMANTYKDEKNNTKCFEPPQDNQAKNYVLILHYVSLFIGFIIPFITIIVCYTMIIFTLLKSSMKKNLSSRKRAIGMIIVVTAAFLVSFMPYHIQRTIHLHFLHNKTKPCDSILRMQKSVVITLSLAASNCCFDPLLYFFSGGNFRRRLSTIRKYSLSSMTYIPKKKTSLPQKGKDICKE
Procedure: Male, Hartley guinea pigs weighing 200-450 grams were killed by decapitation. A section of terminal ileum was removed, the lumen cleaned, and the tissue divided into 2.5 cm segments. The ilea were mounted in 10 ml tissue baths containing Krebs-bicarbonate solution of the following composition in mmoles/liter: KCl, 4.6; CaCl2 ·2H2 O, 1.2; KH2 PO4, 1.2; MgSO4 ·7H2O, 1.2; NaCl, 118.2; NaHCO3, 24.8; and dextrose, 10.0. The bath fluid was maintained at 37° C. and aerated with 95 percent oxygen and 5 percent CO2 In addition, the buffer contained 1×10^-6 M atropine to reduce ileal spontaneous activity. Isometric measurements were made with a Grass FT03C. force-displacement transducer and recorded on a Grass polygraph as change in grams of force. A passive force of 0.5 g was applied to the tissues. After an appropriate equilibration period, single submaximal control responses to pure LTD4 were obtained. Following a five minute exposure of the ileum to an experimental drug, the control concentration of LTD4 was added to the tissue bath. The response of the ileum to LTD4 in the presence of the drug was compared to the response in the absence of the drug.
A more detailed analysis of LTD4 antagonism was then made. In these experiments, cumulative concentration-response curves were obtained to LTD4 in guinea pig ileum and trachea. This was followed by a 30 minute incubation with various concentrations of the experimental drug. The concentration response curve to LTD4 was then repeated in the presence of the antagonist. Only one concentration of antagonist was used on a single tissue. KB values were calculated by the method of Furchgott [Ann. N.Y. Acad. Sci., 139, 553 (1967)] using the following equation. [formula]
Dose ratio refers to the concentration of agonist required to elicit 50 percent of the maximal response ED50) in the presence of the antagonist divided by the ED50 in the absence of the antagonist.

[2] = tested on: LTB4 induced cell aggregation (neutrophils); test: LTB4 Induced Aggregation Assay (neutrophils); assay type: cell-based, guinea pig; conditions: Cavia porcellus, Neutrophil; for inhibition at 1 µM: drug concentration 10^-6 M; for inhibition at 0.1 µM: drug concentration 10^-7 M; for inhibition at 10 µM: drug concentration 10^-5 M
Procedure: Neutrophils were elicited by intraperitoneally injecting 20 ml of Dulbecco's calcium and magnesium deficient phosphate buffered saline (PBS) containing 2% oyster glycogen into each of two male Hartley guinea pigs. Eighteen hours later, cells accumulating in the peritoneal cavity were harvested by washing the peritoneum with approximately 100 ml of PBS containing 10 units/ml of heparin. The cells were centrifuged at 200 g for 8 min. and the supernatant fluid discarded. Erythrocytes present in the pellet were lyzed by vigorous agitation of the cells in 9 ml of ice-cold distilled water for approximately 30 seconds. Physiological osmolarity was restored by adding 1.5 ml of 0.6 M KCl. Twelve milliliters of PBS were added and the resuspended cells centrifuged at 200 g for 8 min. at 4°. The pellet was resuspended in 5 ml PBS. The cell concentration was determined and additional buffer added to make the concentration […]; cells per ml.
The aggregation assay was carried out by measuring the amount of LTB4 induced cell aggregation with a Payton single channel aggregometer, model 300B. The apparatus was calibrated by placing a cuvette containing the cell suspension in it and adjusting the zero knob so that the recorder pen rested at 1 mV. A cuvette containing 20% less cells was then inserted into the aggregometer and the output knob adjusted so that the recorder pen rested at 9 mV. With these settings an 8 mV change causes the recorder pen to move 200 mm. When conducting an assay, 0.5 ml of cell suspension (5×10^6 cells) was added to each cuvette. Five microliters of a solution of test compound were then added. Most compounds were initially dissolved in DMSO at 1×10^-2 M and then diluted appropriately with PBS so that the test compound concentration was 1×10^-5 to 1×10^-7 M and the test DMSO concentration was 0.1% or less. A few of the more water insoluble compounds were first dissolved in DMSO at 1 to 6×10^-3 M and then diluted appropriately with PBS. The test concentration of DMSO was never higher than 1%. After a 2 minute equilibration period of cells and test compound, 5 μl of a solution containing CaCl2 (100 mM) and MgCl2 (50 mM) were added. One minute later, 5 μ l of PBS containing LTB4 (3×10^-7 M) were added. The change occurring in the amount of light transmitted during the subsequent minute was measured. […] During a typical experiment, several measurements of the amount of aggregation induced by LTB4 were made and an average value determined. The effect of a test compound on this aggregation was determined by the following formula: [formula]

[3] = target: T2, specific receptor on the membrane of human neutrophils (leukotriene B4) (Homo sapiens, UniProt Q15722); test: Inhibition of Binding of ^3 H-LTB4 to Peripheral Human Neutrophils; conditions: for inhibition at 10 µM / inhibition at 1 µM / inhibition at 0.1 µM: read-out: LTB4 Binding Inhibition; for inhibition at 0.1 µM: drug concentration 10^-7 M
T2 construct: Freshly-prepared buffy coat layers from two individuals were obtained from a local blood donor center; endogenous in cells; host or cells: intact human peripheral blood neutrophils from buffy coats of two donors
Procedure: Cells used in the assay were isolated by standard techniques of centrifugation on Ficoll-Hypaque, dextran 70 sedimentation and hypotonic lysis. The following procedure was used. Freshly-prepared buffy coat layers from two individuals were obtained from a local blood donor center. The cells were mixed and diluted to 484 ml with phosphate buffered saline containing heparin (10 units/ml) and heat-inactivated calf serum (5%). This was divided into 20 ml aliquots and the aliquots layered on top of Ficoll-Paque (12 ml). The material was then centrifuged at 500 g for 40 minutes at room temperature. The resulting upper layer of platelets and mononuclear cells was discarded. The lower layer containing erythrocytes and neutrophils was retained. Buffer was added (1 ml per 4 ml of lower layer) and the suspension mixed. For each milliliter of this mixture, 0.33 ml of 6% Macrodex was added. After stirring, the cells were allowed to sediment for 1 hour at 37° C. The resulting erythrocyte pellet was discarded and the neutrophil enriched supernatant fluid centrifuged at 500 g for 10 minutes at 4° C. Erythrocytes still present in this cell pellet were lysed by incubating the cells with 5-8 ml ice-cold distilled water for 30-45 seconds. Subsequently, the volume was made up to 50 ml by addition of ice-cold buffer and the cells resuspended. The suspension was then centrifuged at 300 g for 10 minutes at 4° C. The cells were finally resuspended at a cell density of 2×10^7 cells/ml in the assay buffer This buffer consisted of Hanks' balanced salt solution and 0.1% ovalbumin (pH 7.3).
The amount of bound ^3 H-LTB4 was then measured and compared with the amount bound in the absence of test compound. The assay was carried out in microcentrifuge tubes by adding first 10 μl test compound dissolved in DMSO, followed by adding 20 μl ^3 H-LTB4 diluted in assay buffer, and finally adding 500 μl of the cell suspension. At the end of the 10 minutes incubation, 300 μl of a mixture of dibutyl and dinonyl phthalate (7:2) were added and the tubes centrifuged for 2 minutes in a microcentrifuge. The radioactivity bound to the cell pellet was measured by scintillation spectroscopy. Appropriate corrections for nonspecific bonding of ^3 H-LTB4 were made.

[4] = drug concentration 10^-5 M, 0.1-0.2 nM ^3 H-LTB4, 10 minutes at 4° C
[5] = drug concentration 10^-6 M, 0.1-0.2 nM ^3 H-LTB4, 10 minutes at 4° C
[6] = 0.1-0.2 nM ^3 H-LTB4, 10 minutes at 4° C

T2 sequence (Q15722 whole entry): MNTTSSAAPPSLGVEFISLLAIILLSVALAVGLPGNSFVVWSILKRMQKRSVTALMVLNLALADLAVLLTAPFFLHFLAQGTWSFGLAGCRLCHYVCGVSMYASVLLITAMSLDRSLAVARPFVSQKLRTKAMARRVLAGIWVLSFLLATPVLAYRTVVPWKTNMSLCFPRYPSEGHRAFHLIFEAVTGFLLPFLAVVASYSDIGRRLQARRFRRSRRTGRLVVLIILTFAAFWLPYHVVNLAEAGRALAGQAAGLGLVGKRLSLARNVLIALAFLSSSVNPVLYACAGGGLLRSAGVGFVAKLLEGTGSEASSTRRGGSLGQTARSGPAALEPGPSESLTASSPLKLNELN

SMILES | Kb [1] [nM] | inhibition at 1 µM [2] [%] | inhibition at 0.1 µM [2] [%] | inhibition at 10 µM [3, 4] [%] | inhibition at 1 µM [3, 5] [%] | LTB4 Binding Inhibition [3, 5] [percent inhibition] | inhibition at 0.1 µM [3, 6] [%] | inhibition at 10 µM [3] [%] | inhibition at 10 µM [2] [%]
CCCCCCCCCCOc1ccc(C(=O)c2cccc(C(=O)O)c2)cc1Cc1nnn[nH]1 [Example 3, 3-[4-(Decyloxy)-3-(1-tetrazol-5-ylmethyl]benzoyl]benzoic acid] | 501 | 84 | 2 | 76 | 26 |  |  |  | 
CCCCCCCCCCOc1ccc(C(=O)c2ccccc2C(=O)O)cc1CC(=O)O [Example 20, 5-(2-Carboxybenzoyl)-2-(decyloxy)benzeneacetic acid] | 1000 | 78 | 32 | 71 |  | 35 |  |  | 
CCCCCCCCCCOc1ccc(C(=O)c2cccc(C(=O)O)c2)cc1CCC(=O)O [Example 22, 5-(3-Carboxybenzoyl)-2-(decyloxy)benzenepropanoic acid] | 1950 |  | 83 | 95 | 62 |  | 17 |  | 
CCCCCCCCCCOc1ccc(C(=O)c2cccc(C(=O)O)c2)cc1CCc1nnn[nH]1 [Example 28, 3-{4-(Decyloxy)-3-[2-(1H-tetrazol-5-yl)ethyl]benzoyl}benzoic acid] | 324 |  |  | 96 | 55 |  |  |  | 
CCCCCCCCCCOc1ccc(C(=O)c2cccc(-c3nnn[nH]3)c2)cc1CCC(=O)O [Example 29, 2-(Decyloxy)-5-[3-(1H-tetrazol-5-yl)benzoyl]benzenepropanoic acid] | 955 | 72 | 14 | 98 | 71 |  | 11 |  | 
CCCCCCCCCCOc1ccc(C(=O)c2ccccc2CC(=O)O)cc1CCC(=O)O [Example 33, 5-[2-(Carboxymethyl)benzoyl]-2-(decyloxy)benzenepropanoic acid] | 1150 | 94 | 45 |  | 79 |  | 17 | 100 | 
CCCCCCCCCCOc1ccc(C(O)c2cccc(C(=O)O)c2)cc1CC(=O)O (stereo not drawn) [Example 45, 5-[(3--Carboxyphenyl)hydroxymethyl]-2-(decyloxy)benzeneacetic acid] | 2000 | 11 |  | 78 | 19 |  |  |  | 77
CCCCCCOc1ccc(C(O)c2cccc(C(=O)O)c2)cc1CC(=O)O (stereo not drawn) [Example 48, 5-[(3--Carboxyphenyl)hydroxymethyl]-2-(hexyloxy)benzeneacetic acid] | 7940 |  |  | 10 | -10 |  |  |  | 
CCCCCCCCCCOc1ccc(C(=NO)c2cccc(C(=O)O)c2)cc1CCC(=O)O [Example 52, 5-[(3-Carboxyphenyl)(hydroxyimino)methyl]-2-(decyloxy)benzenepropanoic acid] | 661 | 89 | 38 |  | 61 |  | 17 | 92 | 94
CCCCCCCCCCOc1ccc(Oc2cccc(C(=O)O)c2)cc1CCC(=O)O [Example 56, 5-(3-Carboxyphenoxy)-2-(decyloxy)benzenepropanoic acid] | 479 |  |  | 88 | 41 |  |  |  | 
